Measurements from patent US20260356819A1, “OXOISOINDOLINYL-SUBSTITUTED […] DERIVATIVE AND USE THEREOF” (GLUETACS THERAPEUTICS (SHANGHAI) CO., LTD., priority 2023, published 2026).

Tests used:
Assay type in all cases: cell-based
Conditions in all cases: compounds at 50 nM and 500 nM
GSPT1 = biological target: T1, GSPT1 (Homo sapiens, UniProt P15170+Q96SW2); assay: Western blot degradation of GSPT1 in hPBMCs (24 h)
T1 construct: The supernatant was aspirated as the extracted total cell protein; endogenous in cells; host or cells: human peripheral blood mononuclear cells (hPBMCs)
T1 sequence (P15170 whole entry): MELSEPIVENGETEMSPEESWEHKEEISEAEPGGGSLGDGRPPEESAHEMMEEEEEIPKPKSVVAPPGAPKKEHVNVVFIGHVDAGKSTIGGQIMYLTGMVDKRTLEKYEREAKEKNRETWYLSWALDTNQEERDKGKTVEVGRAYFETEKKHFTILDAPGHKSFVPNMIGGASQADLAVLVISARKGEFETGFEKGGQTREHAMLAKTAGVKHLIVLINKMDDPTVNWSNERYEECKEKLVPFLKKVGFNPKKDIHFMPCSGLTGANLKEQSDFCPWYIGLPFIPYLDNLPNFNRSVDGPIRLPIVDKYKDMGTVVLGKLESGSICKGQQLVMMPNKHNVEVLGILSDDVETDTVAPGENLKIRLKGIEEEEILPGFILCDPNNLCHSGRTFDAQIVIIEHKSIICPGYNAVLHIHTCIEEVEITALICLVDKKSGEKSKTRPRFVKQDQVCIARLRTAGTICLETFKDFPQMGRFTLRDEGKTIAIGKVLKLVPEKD
T1 sequence (Q96SW2 whole entry): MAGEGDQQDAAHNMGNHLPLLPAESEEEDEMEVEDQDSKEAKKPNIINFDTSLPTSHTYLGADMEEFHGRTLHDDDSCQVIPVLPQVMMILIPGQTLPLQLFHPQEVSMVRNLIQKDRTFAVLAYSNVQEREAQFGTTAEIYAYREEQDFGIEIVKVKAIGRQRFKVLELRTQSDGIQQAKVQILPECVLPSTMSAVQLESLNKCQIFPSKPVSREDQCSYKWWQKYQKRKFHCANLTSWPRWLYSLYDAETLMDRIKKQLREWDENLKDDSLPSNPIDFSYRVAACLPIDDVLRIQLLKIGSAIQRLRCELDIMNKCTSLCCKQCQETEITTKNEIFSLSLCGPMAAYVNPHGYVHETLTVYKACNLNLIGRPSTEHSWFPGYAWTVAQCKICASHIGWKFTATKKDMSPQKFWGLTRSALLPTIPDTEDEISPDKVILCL
T1 sequence (Q16531 whole entry partner): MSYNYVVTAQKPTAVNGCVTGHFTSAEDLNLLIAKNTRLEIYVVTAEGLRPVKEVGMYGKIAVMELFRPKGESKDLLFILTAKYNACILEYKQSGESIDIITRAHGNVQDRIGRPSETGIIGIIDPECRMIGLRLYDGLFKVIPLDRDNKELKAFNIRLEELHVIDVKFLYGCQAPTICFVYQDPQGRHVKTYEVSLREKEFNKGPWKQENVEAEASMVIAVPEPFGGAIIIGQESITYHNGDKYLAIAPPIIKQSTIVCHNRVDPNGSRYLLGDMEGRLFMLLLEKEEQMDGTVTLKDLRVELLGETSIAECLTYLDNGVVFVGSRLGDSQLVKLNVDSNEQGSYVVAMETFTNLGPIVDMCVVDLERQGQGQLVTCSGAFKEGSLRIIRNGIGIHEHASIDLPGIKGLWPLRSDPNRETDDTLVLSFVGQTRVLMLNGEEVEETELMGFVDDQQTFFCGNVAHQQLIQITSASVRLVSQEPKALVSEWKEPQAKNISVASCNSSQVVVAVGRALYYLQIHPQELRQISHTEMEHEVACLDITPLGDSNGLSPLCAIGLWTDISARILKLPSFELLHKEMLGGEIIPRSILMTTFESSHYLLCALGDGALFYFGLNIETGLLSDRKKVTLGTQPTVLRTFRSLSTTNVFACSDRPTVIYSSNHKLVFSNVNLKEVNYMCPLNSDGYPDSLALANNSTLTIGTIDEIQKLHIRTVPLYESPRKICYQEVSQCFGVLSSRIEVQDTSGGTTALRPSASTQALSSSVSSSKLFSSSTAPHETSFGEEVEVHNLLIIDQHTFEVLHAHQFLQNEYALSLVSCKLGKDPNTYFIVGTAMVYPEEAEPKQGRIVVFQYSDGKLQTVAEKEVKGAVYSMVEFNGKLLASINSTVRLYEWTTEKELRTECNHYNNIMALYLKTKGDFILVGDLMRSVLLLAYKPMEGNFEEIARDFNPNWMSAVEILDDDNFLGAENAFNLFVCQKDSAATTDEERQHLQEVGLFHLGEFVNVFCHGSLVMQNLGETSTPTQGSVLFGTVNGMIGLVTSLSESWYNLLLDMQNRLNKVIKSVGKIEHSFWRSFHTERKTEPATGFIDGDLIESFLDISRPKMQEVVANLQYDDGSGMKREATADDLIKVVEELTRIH
How it was run: (§1)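 In this assay, each compound was incubated with human PBMCs for 24 h at 50 nM and 500 nM. Target levels were measured by Western blot densitometry normalised to an internal control.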

IKZF2 = biological target: T2, IKZF2 (Homo sapiens, UniProt Q96SW2+Q9UKS7); assay: Western blot degradation of IKZF2 in hPBMCs (24 h)
T2 construct: The supernatant was aspirated as the extracted total cell protein; endogenous in cells; host or cells: human peripheral blood mononuclear cells (hPBMCs)
How it was run: as §1

WEE1 = biological target: T3, WEE1 (Homo sapiens, UniProt P30291+Q96SW2); assay: Western blot degradation of WEE1 in hPBMCs (24 h)
T3 construct: The supernatant was aspirated as the extracted total cell protein; endogenous in cells; host or cells: human peripheral blood mononuclear cells (hPBMCs)
T3 sequence (P30291 whole entry): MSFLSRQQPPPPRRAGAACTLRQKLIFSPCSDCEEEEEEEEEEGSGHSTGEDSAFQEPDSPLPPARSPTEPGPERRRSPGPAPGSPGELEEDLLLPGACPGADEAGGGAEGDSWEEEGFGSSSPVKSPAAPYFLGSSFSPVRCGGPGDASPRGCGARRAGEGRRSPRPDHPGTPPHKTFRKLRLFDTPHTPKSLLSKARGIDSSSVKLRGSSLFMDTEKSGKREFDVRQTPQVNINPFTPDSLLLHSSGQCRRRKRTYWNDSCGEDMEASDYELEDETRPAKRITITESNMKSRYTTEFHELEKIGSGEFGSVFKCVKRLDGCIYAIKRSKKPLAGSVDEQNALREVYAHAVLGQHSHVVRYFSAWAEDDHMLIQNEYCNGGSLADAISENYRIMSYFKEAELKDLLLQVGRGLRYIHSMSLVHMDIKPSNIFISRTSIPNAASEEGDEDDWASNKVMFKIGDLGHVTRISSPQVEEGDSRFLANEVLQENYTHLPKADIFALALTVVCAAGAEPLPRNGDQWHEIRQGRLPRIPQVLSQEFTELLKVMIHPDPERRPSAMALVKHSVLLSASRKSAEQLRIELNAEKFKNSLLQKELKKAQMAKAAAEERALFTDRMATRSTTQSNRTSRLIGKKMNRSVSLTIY
T3 sequence (Q96SW2 whole entry): as the sequence (Q96SW2 whole entry) above
T3 sequence (Q16531 whole entry partner): as the sequence (Q16531 whole entry partner) above
How it was run: as §1

IKZF1 = biological target: T4, IKZF1 (Homo sapiens, UniProt Q13422+Q96SW2); assay: Western blot degradation of IKZF1 in hPBMCs (24 h)
T4 construct: The supernatant was aspirated as the extracted total cell protein; endogenous in cells; host or cells: human peripheral blood mononuclear cells (hPBMCs)
T4 sequence (Q13422 whole entry): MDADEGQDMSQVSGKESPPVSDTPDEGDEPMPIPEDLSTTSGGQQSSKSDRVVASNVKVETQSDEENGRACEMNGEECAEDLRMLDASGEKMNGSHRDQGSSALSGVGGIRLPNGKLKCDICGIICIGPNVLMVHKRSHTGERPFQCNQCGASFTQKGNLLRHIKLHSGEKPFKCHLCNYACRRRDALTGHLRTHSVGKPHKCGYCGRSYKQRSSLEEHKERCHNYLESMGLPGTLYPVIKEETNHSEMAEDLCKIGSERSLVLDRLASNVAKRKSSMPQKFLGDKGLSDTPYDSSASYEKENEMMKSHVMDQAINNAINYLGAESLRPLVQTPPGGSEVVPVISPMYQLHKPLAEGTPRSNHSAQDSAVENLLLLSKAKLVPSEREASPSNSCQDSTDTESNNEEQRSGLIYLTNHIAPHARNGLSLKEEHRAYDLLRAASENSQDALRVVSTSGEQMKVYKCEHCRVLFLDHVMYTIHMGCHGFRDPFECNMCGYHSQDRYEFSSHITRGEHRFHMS
T4 sequence (Q96SW2 whole entry): as the sequence (Q96SW2 whole entry) above
T4 sequence (Q16531 whole entry partner): as the sequence (Q16531 whole entry partner) above
How it was run: as §1

IKZF3 = biological target: T5, IKZF3 (Homo sapiens, UniProt Q96SW2+Q9UKT9); assay: Western blot degradation of IKZF3 in hPBMCs (24 h)
T5 construct: The supernatant was aspirated as the extracted total cell protein; endogenous in cells; host or cells: human peripheral blood mononuclear cells (hPBMCs)
T5 sequence (Q9UKT9 whole entry): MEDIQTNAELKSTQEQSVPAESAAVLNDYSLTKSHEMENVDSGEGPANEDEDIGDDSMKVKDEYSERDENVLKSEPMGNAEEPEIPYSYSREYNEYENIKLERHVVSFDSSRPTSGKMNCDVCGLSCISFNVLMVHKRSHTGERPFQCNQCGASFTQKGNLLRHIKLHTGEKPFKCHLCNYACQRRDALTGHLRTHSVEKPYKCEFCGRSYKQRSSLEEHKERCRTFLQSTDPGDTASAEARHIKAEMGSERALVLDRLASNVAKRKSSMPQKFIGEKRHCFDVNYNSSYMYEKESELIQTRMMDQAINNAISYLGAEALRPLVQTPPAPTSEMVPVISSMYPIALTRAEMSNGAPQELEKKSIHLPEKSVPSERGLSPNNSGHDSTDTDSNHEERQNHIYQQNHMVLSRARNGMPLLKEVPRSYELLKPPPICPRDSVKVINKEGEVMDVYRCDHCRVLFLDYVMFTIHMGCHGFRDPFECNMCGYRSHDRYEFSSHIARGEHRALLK
T5 sequence (Q96SW2 whole entry): as the sequence (Q96SW2 whole entry) above
T5 sequence (Q16531 whole entry partner): as the sequence (Q16531 whole entry partner) above
How it was run: as §1

CK1α = biological target: T6, CK1α (Homo sapiens, UniProt P48729+Q96SW2); assay: Western blot degradation of CK1α in hPBMCs (24 h)
T6 construct: The supernatant was aspirated as the extracted total cell protein; endogenous in cells; host or cells: human peripheral blood mononuclear cells (hPBMCs)
T6 sequence (P48729 whole entry): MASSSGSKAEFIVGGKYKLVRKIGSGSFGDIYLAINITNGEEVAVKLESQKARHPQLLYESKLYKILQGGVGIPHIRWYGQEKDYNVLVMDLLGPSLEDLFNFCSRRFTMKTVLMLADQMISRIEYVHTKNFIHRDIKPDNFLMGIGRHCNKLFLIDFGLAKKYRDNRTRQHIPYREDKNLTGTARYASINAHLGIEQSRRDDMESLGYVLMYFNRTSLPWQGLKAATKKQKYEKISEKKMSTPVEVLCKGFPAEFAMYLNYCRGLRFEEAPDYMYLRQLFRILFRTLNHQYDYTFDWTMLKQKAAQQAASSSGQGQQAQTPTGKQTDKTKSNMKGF
T6 sequence (Q96SW2 whole entry): as the sequence (Q96SW2 whole entry) above
T6 sequence (Q16531 whole entry partner): as the sequence (Q16531 whole entry partner) above
How it was run: as §1

SMILES | GSPT1 substrate protein remaining % (GSPT1) | IKZF2 substrate protein remaining % (IKZF2) | WEE1 substrate protein remaining % (WEE1) | IKZF1 substrate protein remaining % (IKZF1) | IKZF3 substrate protein remaining % (IKZF3) | CK1α substrate protein remaining % (CK1α)
O=C1CCN(N2Cc3cc(CN4CCN(c5cnnc(Cl)c5Cl)CC4)ccc3C2=O)C(=O)N1 [GT-07029, 1-(5-((4-(5,6-dichloropyridazin-4-yl)piperazin-1-yl)methyl)-1-oxoisoindolin-2-yl)dihydropyrimidine-2,4(1H,3H)-dione] | A (0% ≤ substrate protein remaining % ≤80%) | A (0% ≤ substrate protein remaining % ≤80%) | A (0% ≤ substrate protein remaining % ≤80%) | B (80%< substrate protein remaining % ≤100%) | B (80%< substrate protein remaining % ≤100%) | B (80%< substrate protein remaining % ≤100%)
O=C1CCN(N2Cc3cc(CN4CCN(c5cc(Cl)nnc5Cl)CC4)ccc3C2=O)C(=O)N1 [GT-07030, 1-(5-((4-(3,6-dichloropyridazin-4-yl)piperazin-1-yl)methyl)-1-oxoisoindolin-2-yl)dihydropyrimidine-2,4(1H,3H)-dione] | B (80%< substrate protein remaining % ≤100%) | A (0% ≤ substrate protein remaining % ≤80%) | B (80%< substrate protein remaining % ≤100%) | B (80%< substrate protein remaining % ≤100%) | B (80%< substrate protein remaining % ≤100%) | B (80%< substrate protein remaining % ≤100%)
O=C1CCN(N2Cc3cc(CN4CCN(c5ncncn5)CC4)ccc3C2=O)C(=O)N1 [GT-07031, 1-(5-((4-(1,3,5-triazin-2-yl)piperazin-1-yl)methyl)-1-oxoisoindolin-2-yl)dihydropyrimidine-2,4(1H,3H)-dione] | A (0% ≤ substrate protein remaining % ≤80%) | B (80%< substrate protein remaining % ≤100%) | B (80%< substrate protein remaining % ≤100%) | A (0% ≤ substrate protein remaining % ≤80%) | A (0% ≤ substrate protein remaining % ≤80%) | A (0% ≤ substrate protein remaining % ≤80%)
O=C1CCN(N2Cc3cc(CN4CCN(c5c(Cl)cncc5Cl)CC4)ccc3C2=O)C(=O)N1 [GT-07032, 1-(5-((4-(3,5-dichloropyridin-4-yl)piperazin-1-yl)methyl)-1-oxoisoindolin-2-yl)dihydropyrimidine-2,4(1H,3H)-dione] | A (0% ≤ substrate protein remaining % ≤80%) | B (80%< substrate protein remaining % ≤100%) | B (80%< substrate protein remaining % ≤100%) | B (80%< substrate protein remaining % ≤100%) | B (80%< substrate protein remaining % ≤100%) | B (80%< substrate protein remaining % ≤100%)
Cc1cc(N2CCN(Cc3ccc4c(c3)CN(N3CCC(=O)NC3=O)C4=O)CC2)cc(C)n1 [GT-07033, 1-(5-((4-(2,6-dimethylpyridin-4-yl)piperazin-1-yl)methyl)-1-oxoisoindolin-2-yl)dihydropyrimidine-2,4(1H,3H)-dione] | A (0% ≤ substrate protein remaining % ≤80%) | B (80%< substrate protein remaining % ≤100%) | B (80%< substrate protein remaining % ≤100%) | B (80%< substrate protein remaining % ≤100%) | B (80%< substrate protein remaining % ≤100%) | B (80%< substrate protein remaining % ≤100%)
O=C1CCN(N2C(=O)c3ccc(CN4CCN(c5ncnc(Cl)c5Cl)CC4)cc3C2=O)C(=O)N1 [GT-07034, 5-((4-(5,6-dichloropyrimidin-4-yl)piperazin-1-yl)methyl)-2-(2,4-dioxotetrahydropyrimidin-1(2H)-yl)isoindoline-1,3-dione] | A (0% ≤ substrate protein remaining % ≤80%) | A (0% ≤ substrate protein remaining % ≤80%) | A (0% ≤ substrate protein remaining % ≤80%) | A (0% ≤ substrate protein remaining % ≤80%) | A (0% ≤ substrate protein remaining % ≤80%) | A (0% ≤ substrate protein remaining % ≤80%)
O=C1CCN(N2C(=O)c3ccc(CN4CCN(c5cnnc(Cl)c5Cl)CC4)cc3C2=O)C(=O)N1 [GT-07035, 5-((4-(5,6-dichloropyridazin-4-yl)piperazin-1-yl)methyl)-2-(2,4-dioxotetrahydropyrimidin-1(2H)-yl)isoindoline-1,3-dione] | A (0% ≤ substrate protein remaining % ≤80%) | B (80%< substrate protein remaining % ≤100%) | B (80%< substrate protein remaining % ≤100%) | B (80%< substrate protein remaining % ≤100%) | A (0% ≤ substrate protein remaining % ≤80%) | A (0% ≤ substrate protein remaining % ≤80%)
O=C1CCN(N2C(=O)c3ccc(CN4CCN(c5cc(Cl)nnc5Cl)CC4)cc3C2=O)C(=O)N1 [GT-07036, 5-((4-(3,6-dichloropyridazin-4-yl)piperazin-1-yl)methyl)-2-(2,4-dioxotetrahydropyrimidin-1(2H)-yl)isoindoline-1,3-dione] | A (0% ≤ substrate protein remaining % ≤80%) | B (80%< substrate protein remaining % ≤100%) | B (80%< substrate protein remaining % ≤100%) | B (80%< substrate protein remaining % ≤100%) | B (80%< substrate protein remaining % ≤100%) | B (80%< substrate protein remaining % ≤100%)
O=C1CCN(N2C(=O)c3ccc(CN4CCN(c5ncncn5)CC4)cc3C2=O)C(=O)N1 [GT-07037, 5-((4-(1,3,5-triazin-2-yl)piperazin-1-yl)methyl)-2-(2,4-dioxotetrahydropyrimidin-1(2H)-yl)isoindoline-1,3-dione] | A (0% ≤ substrate protein remaining % ≤80%) | B (80%< substrate protein remaining % ≤100%) | B (80%< substrate protein remaining % ≤100%) | B (80%< substrate protein remaining % ≤100%) | B (80%< substrate protein remaining % ≤100%) | B (80%< substrate protein remaining % ≤100%)
O=C1CCN(N2C(=O)c3ccc(CN4CCN(c5c(Cl)cncc5Cl)CC4)cc3C2=O)C(=O)N1 [GT-07038, 5-((4-(3,5-dichloropyridin-4-yl)piperazin-1-yl)methyl)-2-(2,4-dioxotetrahydropyrimidin-1(2H)-yl)isoindoline-1,3-dione] | A (0% ≤ substrate protein remaining % ≤80%) | A (0% ≤ substrate protein remaining % ≤80%) | A (0% ≤ substrate protein remaining % ≤80%) | A (0% ≤ substrate protein remaining % ≤80%) | A (0% ≤ substrate protein remaining % ≤80%) | A (0% ≤ substrate protein remaining % ≤80%)
